Results from patent US12157746B2, “Tetrahydro-1H-pyrazino[2,1-a]isoindolylquinoline compounds for the treatment of autoimmune disease” (F. HOFFMANN-LA ROCHE AG, priority 2018, dated 2024).

Each molecule was assayed against T1, human TLR8 (Homo sapiens, UniProt Q9NR97) (assay: HEK293-Blue-hTLR-8 cells assay). Conditions: HEK293-Blue-hTLR8 cells, R848 stimulation, 20 hrs, SEAP reporter; read-out: HEK/hTLR8 IC50.
T1 sequence (Q9NR97 27-1041): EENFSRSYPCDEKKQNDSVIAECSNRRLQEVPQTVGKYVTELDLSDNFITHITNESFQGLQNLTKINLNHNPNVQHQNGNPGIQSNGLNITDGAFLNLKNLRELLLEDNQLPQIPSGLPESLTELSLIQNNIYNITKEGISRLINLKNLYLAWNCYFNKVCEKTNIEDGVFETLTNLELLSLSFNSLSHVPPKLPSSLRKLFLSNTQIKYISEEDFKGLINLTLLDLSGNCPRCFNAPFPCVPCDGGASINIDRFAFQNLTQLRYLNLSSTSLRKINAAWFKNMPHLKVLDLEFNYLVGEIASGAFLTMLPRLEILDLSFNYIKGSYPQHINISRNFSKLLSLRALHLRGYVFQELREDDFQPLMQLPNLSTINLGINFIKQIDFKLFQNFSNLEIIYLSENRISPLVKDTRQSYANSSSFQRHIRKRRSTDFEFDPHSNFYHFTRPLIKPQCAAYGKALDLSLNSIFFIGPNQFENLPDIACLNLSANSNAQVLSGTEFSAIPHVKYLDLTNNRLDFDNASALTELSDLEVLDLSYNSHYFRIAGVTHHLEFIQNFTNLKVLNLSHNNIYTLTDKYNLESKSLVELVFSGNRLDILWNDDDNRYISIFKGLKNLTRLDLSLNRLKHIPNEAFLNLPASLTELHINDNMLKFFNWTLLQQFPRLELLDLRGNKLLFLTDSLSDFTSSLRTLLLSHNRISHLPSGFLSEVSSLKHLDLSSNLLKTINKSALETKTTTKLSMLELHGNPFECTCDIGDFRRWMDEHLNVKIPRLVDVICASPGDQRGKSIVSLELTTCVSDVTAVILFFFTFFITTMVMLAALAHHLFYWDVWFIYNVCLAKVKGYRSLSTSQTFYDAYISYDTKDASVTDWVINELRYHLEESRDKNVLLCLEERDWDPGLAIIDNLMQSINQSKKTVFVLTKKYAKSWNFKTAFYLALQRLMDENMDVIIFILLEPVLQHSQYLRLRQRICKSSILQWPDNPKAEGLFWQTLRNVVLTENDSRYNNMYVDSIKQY
Format: cell-based
Text: HEK293-Blue-hTLR-8 Cells Assay:
A stable HEK293-Blue-hTLR-8 cell line was purchased from InvivoGen (Cat. #: hkb-htlr8, San Diego, California, USA). These cells were originally designed for studying the stimulation of human TLR8 by monitoring the activation of NF-κB. A SEAP (secreted embryonic alkaline phosphatase) reporter gene was placed under the control of the IFN-β minimal promoter fused to five NF-κB and AP-1-binding sites. The SEAP was induced by activating NF-κB and AP-1 via stimulating HEK-Blue hTLR8 cells with TLR8 ligands. Therefore the reporter expression was declined by TLR8 antagonist under the stimulation of a ligand, such as R848, for incubation of 20 hrs. The cell culture supernatant SEAP reporter activity was determined using QUANTI-Blue™kit (Cat. #: rep-qb1, Invivogen, San Diego, Ca, USA) at a wavelength of 640 nm, a detection medium that turns purple or blue in the presence of alkaline phosphatase.
HEK293-Blue-hTLR8 cells were incubated at a density of 250,000-450,000 cells/mL in a volume of 170 μL in a 96-well plate in Dulbecco's Modified Eagle's medium (DMEM) containing 4.5 g/L glucose, 50 U/mL penicillin, […], […], 2 mM L-glutamine, 10% (v/v) heat-inactivated fetal bovine serum with addition of 20 μL test compound 1n a serial dilution in the presence of final DMSO at 1% and 10 μL of 60 uM R848 in above DMEM, perform incubation under 37° C. in a CO2 incubator for 20 hrs. Then 20 μL of the supernatant from each well was incubated with 180 μL Quanti-blue substrate solution at 37° C. for 2 hrs and the absorbance was read at 620-655 nm using a spectrophotometer. The signaling pathway that TLR8 activation leads to downstream NF-κB activation has been widely accepted, and therefore similar reporter assay was modified for evaluating TLR8 antagonist.

Row | SMILES | IC50 [nM]
1 | CO[C@H]1CN(c2ccc3c(c2)CN2[C@H](C)CN(c4ccc(C#N)n5nccc45)C[C@H]32)C[C@@H]1N [Example 95, 4-[(4R,10bS)-8-[(3S,4S)-3-amino-4-methoxy-pyrrolidin-1-yl]-4-methyl-3,4,6,10b-tetrahydro-1H-pyrazino[2,1-a]isoindol-2-yl]pyrazolo[1,5-a]pyridine-7-carbonitrile] | 4.6
2 | C[C@@H]1CN(c2ccc(C#N)c3ncccc23)C[C@@H]2c3ccc(N4CCNC[C@H](O)C4)cc3CN12 [Example 53A, 5-[(4R,10bS)-8-[(6S)-6-hydroxy-1,4-diazepan-1-yl]-4-methyl-3,4,6,10b-tetrahydro-1H-pyrazino[2,1-a]isoindol-2-yl]quinoline-8-carbonitrile] | < 3.2
3 | C[C@@H]1CN(c2ccc(C#N)c3ncccc23)C[C@@H]2c3ccc(N4CCOCC(N)C4)cc3CN12 (stereo partly drawn) [Example 54, 5-[(4R,10bS)-8-(6-amino-1,4-oxazepan-4-yl)-4-methyl-3,4,6,10b-tetrahydro-1H-pyrazino[2,1-a]isoindol-2-yl]quinoline-8-carbonitrile] | < 3.2
4 | C[C@@H]1CN(c2ccc(C#N)c3ncccc23)C[C@@H]2c3ccc(N4CC5(CN(C)C5)C4)cc3CN12 [Example 38, 5-[(4R,10bS)-4-methyl-8-(6-methyl-2,6-diazaspiro[3.3]heptan-2-yl)-3,4,6,10b-tetrahydro-1H-pyrazino[2,1-a]isoindol-2-yl]quinoline-8-carbonitrile] | < 0.3
5 | C[C@@H]1CN(c2ccc(C#N)c3ncccc23)C[C@@H]2c3ccc(N4CCOC[C@@H](N)C4)cc3CN12 [Example 54B, 5-[(4R,10bS)-8-[(6S)-6-amino-1,4-oxazepan-4-yl]-4-methyl-3,4,6,10b-tetrahydro-1H-pyrazino[2,1-a]isoindol-2-yl]quinoline-8-carbonitrile] | < 3.2
6 | CO[C@@H]1CNC[C@H]1Nc1ccc2c(c1)CN1[C@H](C)CN(c3ccc(C#N)c4ncccc34)C[C@H]21 [Example 34, 5-[(4R,10bS)-8-[[(3R,4R)-4-methoxypyrrolidin-3-yl]amino]-4-methyl-3,4,6,10b-tetrahydro-1H-pyrazino[2,1-a]isoindol-2-yl]quinoline-8-carbonitrile] | < 3.2
7 | C[C@@H]1CN(c2ccc(C#N)c3ncccc23)C[C@@H]2c3ccc(N[C@H]4CNC[C@@H]4F)cc3CN12 [Example 31, 5-[(4R,10bS)-8-[[(3S,4S)-4-fluoropyrrolidin-3-yl]amino]-4-methyl-3,4,6,10b-tetrahydro-1H-pyrazino[2,1-a]isoindol-2-yl]quinoline-8-carbonitrile] | < 3.2
8 | C[C@@H]1CN(c2ccc(C#N)c3ncccc23)C[C@@H]2c3ccc(N4CCC(N)(CO)C4)cc3CN12 (stereo partly drawn) [Example 19, 5-[(4R,10bS)-8-[3-amino-3-(hydroxymethyl)pyrrolidin-1-yl]-4-methyl-3,4,6,10b-tetrahydro-1H-pyrazino[2,1-a]isoindol-2-yl]quinoline-8-carbonitrile] | < 3.2
9 | CO[C@@H]1CN(c2ccc3c(c2)CN2C3CN(c3ccc(C#N)c4ncccc34)C[C@H]2C)C[C@@H]1N (relative stereo) [Example 17, 5-[(4R,10bS)-8-[cis-3-amino-4-methoxy-pyrrolidin-1-yl]-4-methyl-3,4,6,10b-tetrahydro-1H-pyrazino[2,1-a]isoindol-2-yl]quinoline-8-carbonitrile] | < 3.2
10 | C[C@@H]1CN(c2ccc(C#N)c3ncccc23)C[C@@H]2c3ccc(N4CCC(C)(N)CC4)cc3CN12 [Example 51, 5-[(4R,10bS)-8-(4-amino-4-methyl-1-piperidyl)-4-methyl-3,4,6,10b-tetrahydro-1H-pyrazino[2,1-a]isoindol-2-yl]quinoline-8-carbonitrile] | < 0.3
11 | C[C@@H]1CN(c2ccc(C#N)n3nccc23)C[C@@H]2c3ccc(N4C[C@@H](N)[C@H](O)C4)cc3CN12 [Example 110, 4-[(4R,10bS)-8-[(3R,4R)-3-amino-4-hydroxy-pyrrolidin-1-yl]-4-methyl-3,4,6,10b-tetrahydro-1H-pyrazino[2,1-a]isoindol-2-yl]pyrazolo[1,5-a]pyridine-7-carbonitrile] | 5
12 | C[C@@H]1CN(c2ccc(C#N)n3ncc(F)c23)C[C@@H]2c3ccc(N4C[C@H](N)[C@@](C)(O)C4)cc3CN12 [Example 112, 4-[(4R,10bS)-8-[(3S,4S)-4-amino-3-hydroxy-3-methyl-pyrrolidin-1-yl]-4-methyl-3,4,6,10b-tetrahydro-1H-pyrazino[2,1-a]isoindol-2-yl]-3-fluoro-pyrazolo[1,5-a]pyridine-7-carbonitrile] | 3.6
13 | C[C@@H]1CN(c2ccc(C#N)c3ncccc23)C[C@@H]2c3ccc(N4CCNC[C@H]4CO)cc3CN12 [Example 11, 5-[(4R,10S)-8-[(2S)-2-(hydroxymethyl)piperazin-1-yl]-4-methyl-3,4,6,10b-tetrahydro-1H-pyrazino[2,1-a]isoindol-2-yl]quinoline-8-carbonitrile] | < 3.2
14 | C[C@@H]1CN(c2ccc(C#N)c3ncccc23)C[C@@H]2c3ccc(N4CC(N)C4)cc3CN12 [Example 22, 5-[(4R,10bS)-8-(3-aminoazetidin-1-yl)-4-methyl-3,4,6,10b-tetrahydro-1H-pyrazino[2,1-a]isoindol-2-yl]quinoline-8-carbonitrile] | < 3.2
15 | C[C@@H]1CN(c2ccc(C#N)c3ncccc23)C[C@@H]2c3ccc(N4CCNC[C@](C)(O)C4)cc3CN12 [Example 55A, 5-[(4R,10bS)-8-[(6S)-6-hydroxy-6-methyl-1,4-diazepan-1-yl]-4-methyl-3,4,6,10b-tetrahydro-1H-pyrazino[2,1-a]isoindol-2-yl]quinoline-8-carbonitrile] | < 3.2
16 | C[C@@H]1CN(c2ccc(C#N)c3ncccc23)C[C@@H]2c3ccc(OCCN(C)C)cc3CN12 [Example 25, 5-[(4R,10bS)-8-[2-(dimethylamino)ethoxy]-4-methyl-3,4,6,10b-tetrahydro-1H-pyrazino[2,1-a]isoindol-2-yl]quinoline-8-carbonitrile] | < 3.2
17 | C[C@@H]1CN(c2ccc(C#N)c3ncccc23)CC2c3ccc(N4C[C@H](N)[C@@H](O)C4)cc3CN21 (relative stereo) [Example 21, 5-[(4R,10bS)-8-[trans-3-amino-4-hydroxy-pyrrolidin-1-yl]-4-methyl-3,4,6,10b-tetrahydro-1H-pyrazino[2,1-a]isoindol-2-yl]quinoline-8-carbonitrile] | < 3.2
18 | C[C@@H]1CN(c2ccc(C#N)c3ncccc23)C[C@@H]2c3ccc(N4CCNCC(O)C4)cc3CN12 (stereo partly drawn) [Example 15, 5-[(4R,10bS)-8-(6-hydroxy-1,4-diazepan-1-yl)-4-methyl-3,4,6,10b-tetrahydro-1H-pyrazino[2,1-a]isoindol-2-yl]quinoline-8-carbonitrile] | < 3.2
19 | C[C@@H]1CN(c2ccc(C#N)n3nccc23)C[C@@H]2c3ccc(N4CCOC[C@H](N)C4)cc3CN12 [Example 101, 4-[(4R,10bS)-8-[(6R)-6-amino-1,4-oxazepan-4-yl]-4-methyl-3,4,6,10b-tetrahydro-1H-pyrazino[2,1-a]isoindol-2-yl]pyrazolo[1,5-a]pyridine-7-carbonitrile] | 5.2
20 | C[C@@H]1CN(c2ccc(C#N)c3ncccc23)C[C@@H]2c3ccc(N4CCOC[C@H](N)C4)cc3CN12 [Example 54A, 5-[(4R,10bS)-8-[(6R)-6-amino-1,4-oxazepan-4-yl]-4-methyl-3,4,6,10b-tetrahydro-1H-pyrazino[2,1-a]isoindol-2-yl]quinoline-8-carbonitrile] | < 3.2
